This is an account of results in patent US20240374580A1, “SMALL MOLECULE INHIBITORS OF AUTOPHAGY AND HISTONE DEACTYLASES AND USES THEREOF” (priority 2021, published 2024).

The structures appear in SMILES notation. Like-named read-outs stand apart in the source and are kept apart here. A value given as a limit tells only on which side of the number the result lay.

Data set [1] is described as follows: Oral availability of ROC-325. The settings on record: in vivo. The source says:
(§1) Example data from our published studies are shown here.

A further data set concerns leukemia cells. Kind of data set: LysoSensor Green lysosomal pH (confocal microscopy, FACS). The following applies: 1 μM, 6 h. Format: cell-based. The procedure: FIG. 12. Treatment with ROC-325 leads to lysosomal deacidification. Cells were treated with 1 μM ROC-325 for 6 h, stained with Lysosensor Green and propidium iodide (PI, nuclear counterstain) and then visualized by confocal microscopy.
as §1

The subject of data set [2] is autophagy. Kind of data set: Autophagy markers LC3B and p62 after ROC-325. In kind it is cell-based.
Description: as §1

The subject of data set [3] is renal proximal tubal endothelial cells (RPTEC). The source says:
(§2) The majority of lysosomal proteases that control the autophagy-mediated degradation of proteins and organelles require a strict acidic pH microenvironment for their enzymatic activity. Based on this, lysosomal acidity is commonly used as a marker of autophagy status. We treated leukemia cells with ROC-325 and used LysoSensor Green to evaluate the effects of drug treatment on lysosomal pH.

Data set [4] has as its system normal human CD34+ bone marrow (BM) cells.
Description: as §2

The test system of data set [5] is isolated perfused/ventilated mouse lungs. Kind of data set: PAP in isolated perfused/ventilated mouse lungs (ROC-325). The settings on record: intrapulmonary perfusion for 5 min, 40 mM K+. The procedure:
(§3) FIG. 14A-E. ROC-325 has promising therapeutic activity in models of PH. A-C: in vivo intact animal experiments (ROC-325 was administered daily at 10 mg/kg for 4w). (A) Representative record showing right ventricular pressure (RVP) in control and ROC-treated rats during normoxia. […] (B) Representative record showing right ventricular pressure (RVP) in control rats, MCT-injected rats and MCT-injected rats treated with ROC. (C) Summarized data showing right ventricular systolic pressure (RVSP), a surrogate measure for pulmonary arterial systolic pressure ([…]), in control, MCT-rats (treated with vehicle) and MCT-rats treated with ROC. […] D-E: ex vivo experiment using isolated perfused/ventilated mouse lungs (ROC was applied via intrapulmonary perfusion for 5 min). (D) Representative record showing pulmonary arterial pressure (PAP) in isolated perfused/ventilated mouse lung before, during and after intrapulmonary arterial perfusion of 40 mM K+ (40K) in the absence or presence of ROC. (E) Summarized data showing 40K-induced increases in PAP before (control), during (ROC) and after (washout) application of ROC.
(§4) Finally, we tested the therapeutic benefit of ROC-325 in models of experimental PH (FIG. 14). ROC-325 was administered to rats daily at 10 mg/kg for 4w under normoxic and hypoxic conditions. […]

How the values of data set [6] were obtained: FIG. 13. […] Mice were treated with vehicle, ROC-325, or HCQ as indicated daily for 42 consecutive days. […] Mean±SD.
as §2

The next data set concerns MV4-11 cells. Kind of data set: Transmission electron microscopy of autophagosomes. In kind it is cell-based. The settings on record: 1 μM. The protocol:
FIG. 11. ROC-325 triggers the formation of autophagosomes with undegraded cargo. MV4-11 cells were treated with 1 μM ROC-325 as indicated and visualized by transmission electron microscopy (TEM).
as §1

For data set [7], the system named is broad range of tumor types. The settings on record: cited from earlier work.
Data set [8] relates to autophagy. Nature of the data set: Initial preclinical studies of potency against HCQ. The settings on record: greater than HCQ.
Description: as §1

The subject of a further data set is MCT-injected rats. Kind of data set: RVP/RVSP in control and MCT-injected rats. The following applies: 10 mg/kg daily for 4w. In kind it is in vivo, rat. The procedure: as §3, §4
Another data set has as its system SuHx-PH rat model. Kind of data set: Established PH in the SuHx rat model. In kind it is in vivo. The settings on record: 50 mg/kg/day for 2 weeks after 3 weeks SuHx. The source says: FIG. 9A-C. […] (A) Representative right ventricular pressure (RVP).
(§5) Similarly. […] Additionally.

Data set [9] relates to isolated perfused and ventilated lungs. Nature of the data set: PAP in isolated perfused and ventilated lungs (CHQ). The following applies: 200 μM, intrapulmonary application. The protocol:
FIG. 5A-C. […] (A) Left, PAP in isolated perfused and ventilated lungs before, during and after repeated pulmonary arterial perfusion of 40 mM K+ (40K) solution.
as §5

The subject of a further data set is HPH in rats. Nature of the data set: Development of HPH in rats (hypoxia 10% O2 for 21 days). Format: in vivo, rat. The settings on record: 50 mg/kg/day, hypoxia 21 days.
Description: (E) Representative H&E images of small PAs in Nor, Nor+CHQ, Hyp and Hyp+CHQ rats.
as §5

Data set [10] relates to human PASMC. Nature of the data set: Ca2+ dynamics and whole-cell Ca2+ currents in PASMC. In kind it is cell-based. The procedure: (B) Summarized data showing the amplitude of increase in [Ca2+]cyt induced by application of 10 μM CPA in the absence (first peak) or presence (second peak) of 1.8 mM extracellular Ca2+ (n=44-54 PASMC). […] (D) Summarized data showing [Ca2+]cyt before (basal) and during (ATP) application of ATP in control and CHQ-treated PASMC. Means±SEM, *P<0.05. (E) Summarized data showing ATP-induced increases in [Ca2+]cyt in control and CHQ-treated PASMC. means±SEM *P<0.05. […] Means±SEM, *P<0.05. (G) The current-voltage (I-V) relationship curves constructed from current recordings in PASMC before (Cont), during (CHQ) and after (wash) application of CHQ.
as §5

In data set [11] the test system is human PASMC. Kind of data set: Autophagy markers P62 and LC3B in PASMC (Western blot, immunofluorescence). Format: cell-based. The following applies: 20 μM, 24 h.
Description: as §5

In the next data set the test system is rings of rat PA. The protocol: Due to the key role of autophagy in the pathogenesis of many diseases, we (the inventors) were very interested in exploring the benefit of autophagy inhibition for other indications beyond cancer. […] Such experiments first quantified the vasorelaxant effect on rings of rat PA (FIG. 2). […] Similarly. […] Additionally. […] Rats were given a subcutaneous (s.c.) injection of 20 mg/kg SU5416 or vehicle, followed by hypoxia (SuHx) for 3 weeks (10% 02) and normoxia for an additional 2 weeks to elicit severe PH. […] The normoxic control group was exposed to room air only (21% 02) for a total of 5 weeks (Nor).

A short description of data set [12]: Phase I clinical trial of HCQ with vorinostat, pharmacokinetic analyses. The settings on record: humans.
A further data set is described as follows: clinical. The settings on record: human, in vivo.

As for `Cc1ccc(NCCN(C)CCNc2ccnc3cc(Cl)ccc23)c2c(=O)c3ccccc3sc12` [ROC-325], the oral bioavailability result in data set [1] is “orally bioavailable”. Besides, in the data set on leukemia cells, the “lysosomal pH (LysoSensor Green fluorescence)” value is listed as “stimulated lysosomal deacidification”. Also, in the data set with autophagy [2], the “autophagy marker LC3B” value was “stimulated the autophagy marker LC3B” and the p62 entry was “accumulation of p62”. Besides, in [3], the therapeutic selectivity result was “strong therapeutic selectivity”. For the same compound, the therapeutic selectivity result in [4] is reported as “strong therapeutic selectivity”. Moreover, in [5], the “high K+-induced pulmonary vasoconstriction (PAP)” value is “acutely inhibits high K+-induced pulmonary vasoconstriction”. In addition, the mouse body weight result in data set [6] (daily for 42 consecutive days) was “No significant loss of mouse body weight”. Besides, the tolerability result in data set [6] (oral, daily, 42 days, mice) was “confirmed its tolerability”. In addition, the “autophagosomes with undegraded cargo (TEM)” value in the data set with MV4-11 cells is given as “triggered the accumulation of autophagosomes with undegraded cargo”. In [7] (broad range of tumor types), the “single agent anticancer activity compared to HCQ” value is given as “significantly superior single agent anticancer activity”. Also, the “dose needed to inhibit autophagy compared to HCQ” value in [7] is on record as “inhibits autophagy at significantly lower doses”. The “potency relative to HCQ” value in the data set with autophagy [8] was “approximately 10 fold”. In the data set with MCT-injected rats, the “basal hemodynamics (RVP) in control rats” value was “no effect on basal hemodynamics”. Moreover, in the data set with MCT-injected rats (MCT-injected rats), the “development of experimental PH (RVSP)” value is on record as “significantly inhibited the development of experimental PH”.
Take `CCN(CC)CCCC(C)Nc1ccnc2cc(Cl)ccc12` (stereo not drawn) [CHQ, chloroquine]: in the data set on SuHx-PH rat model, the “progression of established PH” value is “significant therapeutic benefit against established PH progression” and the “reversal of established PH” value is on record as “partially reversed established PH”. In addition, in data set [9], the “40K-induced increases in PAP” value is “could antagonize the 40K-induced increases in PAP” and the “pulmonary vasoconstriction induced by high K+ or hypoxia” value is listed as “attenuates pulmonary vasoconstriction induced by high K+ concentrations or hypoxia”. Moreover, in the data set on HPH in rats, the PA wall thickness entry is on record as “reduced PA wall thickness” and the “right ventricular systolic pressure (RVSP)” value is listed as “significantly reduced RVSP”. For the same compound, the “store-operated Ca2+ entry” value in the data set with human PASMC [10] (200 μM, 10 μM CPA) is reported as “inhibits store-operated Ca2+ entry”. In addition, the “whole-cell Ca2+ currents” value in the data set on human PASMC [10] (test pulse of +10 mV from −70 mV) is recorded as “reduces whole-cell Ca2+ currents”. In addition, the “autophagy (p62 and LC3B)” value with human PASMC [11] was “inhibited autophagy”. Further, in the data set with rings of rat PA (200 μM, endothelium-intact or endothelium-denuded rings pre-constricted with 1 μM PE), the “role of the endothelium in the vasorelaxant effect” value is reported as “endothelium independent”. Besides, the “effect of K+ channel blockade on pulmonary vasodilation” value in the data set on rings of rat PA (200 μM, rings pretreated with paxilline, TEA or ChTX) was “does not affect the ability of CHQ to induce pulmonary vasodilation”. In addition, the “isometric tension in isolated PA rings” value in the data set on rings of rat PA (rings constricted with 1 μM phenylephrine (PE)) was “decreased isometric tension”.
As for `CCN(CCO)CCCC(C)Nc1ccnc2cc(Cl)ccc12` (stereo not drawn) [HCQ, hydroxychloroquine], in data set [6] (mouse, in vivo), the mouse body weight result was “No significant loss of mouse body weight”. The “maximum tolerated dose (MTD)” value in [12] was 600 mg/day. Further, in “clinical”, the Cmax is below 3000 nM.
